Results reported in patent US20080310991A1, “Perishable-fruit-bearing cut-limb preservation and distribution method, coating and shipping container therefor” (State of Oregon, acting by and through the State Board of …, priority 2007, published 2008).

How the values were obtained:
Format in all cases: in vivo, Malus silvestris L. var. domestica Borkh.
[1] = tested on: Rome Beauty apple-bearing cut-limbs; test: Long-term storage experiment with 1-MCP treatment; settings: 1 ppm 1-MCP at 1° C. for twenty-four hours
Method: (§1) For Rome Beauty apples only, a long term storage experiment and an ascorbic acid dip solution/plant regulator spray experiment were also carried out. For the long-term storage experiment, sixty cut-limbs were harvested, packed in the perforated bags, and stored at 1° C. (nearly the freezing temperature of water). Half of the cut-limbs were treated with 0.0001% by volume (1 ppm) of 1-methylcyclopropene (1-MCP) at 1° C. for twenty-four hours before storage. […] It is possible, however, that MCP treatment would be beneficial in other applications, e.g. with different fruit types, varieties, cultivars, etc.

[2] = tested on: Rome Beauty apples cut-limbs; test: Ascorbic acid treatment, visual quality during storage; settings: for Fruit visual quality / Leaves Symptom / Leaves visual quality: Rome Beauty apples, ASA 0.1%, 30 mL, packaged, 20° C.
Method: (§2) The cut-limbs without 1-MCP treatment, after twenty-three and forty-two days of cold storage, were then transferred to room temperature (20° C.), and treated with the following five treatments: bagging, water dipping, bagging plus dipping, bagging […] the control. For the ascorbic acid dipping/abscisic acid spraying experiment, the following four treatments were carried out: ascorbic acid (0.1%) dipping only, coating with an abscission-inducing agent (ABA) such as 0.001% by volume (10 ppm) of abscisic acid added only, 0.1% by volume of ascorbic acid dipping plus coating with ABA added, and the control only. All of the treatments included dipping or coating (or both) and packaging in the perforated polyethylene bags.
(§3) Visual quality of leaves was scored with the widely used scale of 9=excellent, fresh; 7=good; 5=fair, slight discoloration; 3=mild discoloration and dryness; and 1=severe discoloration and dryness. Sensory quality of fruit was scored using a scale of 9=pleasant, fresh; 7=good; 5=bland, faint taste; 3=unpleasant taste; and 1=inedible. For both scales, a score of 5 is generally considered in post-harvest studies to be the threshold level of acceptability.

[3] = tested on: Rome Beauty apples cut-limbs; test: Ascorbic acid dipping/abscisic acid spraying experiment; settings: packaged
Method: as §1, §2

[4] = tested on: cut-limbs of Golden Delicious apple; test: Citric acid immerging, visual quality of cut-limbs; settings: 0.5% CA, 30 mL, packaged, 20° C.
Description: as §3

[5] = 0.1% ascorbic acid dip solution
[6] = 10 ppm abscisic acid in the edible coatings

## CC1=CC1 [1-MCP, 1-methylcyclopropene]
[1]; Rome Beauty cut-limbs
  Fruit appearance: normal appearance
  Leaves showing brown-black burn symptoms: approximately 68%
[1]; after four days of storage at 1° C.
  Phytotoxicity to the leaves: severe phytotoxicity

## O=C1O[C@H]([C@@H](O)CO)C(O)=C1O [ASA, ascorbic acid]
[2]; day 1
  Fruit visual quality: 9.0 a
  Leaves Symptom: Normal
  Leaves visual quality: 8.5 a
[2]; day 2
  Fruit visual quality: 9.0 a
  Leaves Symptom: Normal
  Leaves visual quality: 8.6 a
[2]; day 3
  Fruit visual quality: 9.0 a
  Leaves Symptom: Normal
  Leaves visual quality: 8.3 a
[2]; day 4
  Fruit visual quality: 9.0 a
  Leaves Symptom: Normal
  Leaves visual quality: 8.3 a
[2]; day 5
  Fruit visual quality: 9.0 a
  Leaves Symptom: Normal
  Leaves visual quality: 8.4 a
[2]; day 6
  Fruit visual quality: 9.0 a
  Leaves visual quality: 8.2 a
[2]; day 7
  Fruit visual quality: 8.5 a
  Leaves visual quality: 8.0 a
[2]; after seven days stored with water dipping and packaging, vs no-acid
  Color and luster (FIG. 3C): visibly better color and luster
[3]; [5]
  Shelf-life of the cut-limbs: increased
  Water loss: decreased

## O=C(O)CC(O)(CC(=O)O)C(=O)O [CA, citric acid]
[4]; day 1
  Fruit visual quality: 9.0
  Leaves visual quality: 8.6
[4]; day 2
  Fruit visual quality: 9.0
  Leaves visual quality: 8.4
[4]; day 3
  Fruit visual quality: 9.0
  Leaves visual quality: 8.3
[4]; day 4
  Fruit visual quality: 8.5
  Leaves visual quality: 7.9
[4]; day 5
  Fruit visual quality: 8.5
  Leaves visual quality: 8.4
[4]; day 6
  Fruit visual quality: 8.5
  Leaves visual quality: 8.2
[4]; day 7
  Fruit visual quality: 8.5
  Leaves visual quality: 8.0

## CC1=CC(=O)CC(C)(C)[C@@]1(O)/C=C/C(C)=C\C(=O)O [abscisic acid]
[3]; [6]
  Shelf-life of the cut-limbs: increased
  Water loss: decreased
